Measured values reported in patent US20160058722A1, “METHOD FOR IMPROVING THE OXYGEN-RELEASING ABILITY OF HEMOGLOBIN TO ORGANS AND PERIPHERAL TISSUES IN HUMAN BODIES” (NATIONAL SUN YAT-SEN UNIVERSITY, priority 2014, published 2016).

Target: hemoglobin (Homo sapiens, UniProt P68871+P69905)
Test: resonance Raman spectroscopy of oxygenated hemoglobin, percentage of "R" state
Format: biochemical
Settings: varying mole ratio to hemoglobin tetramer, 532 nm excitation, oxygen atmosphere
Excerpt: In order to evaluate the effect of ferulic acid on stabilizing the oxygenated hemoglobin in the low oxygen affinity “T” state, compounds including 2,3-BPG (group A0) and ferulic acid (group A1) are mixed with hemoglobin as a function of their mole ratio to hemoglobin, followed by the resonance Raman spectroscopy measurements at 532 nm excitation wavelength under the oxygen atmosphere. The percentages of the high oxygen affinity “R” state for hemoglobin treated with 2,3-BPG (shown in FIG. 2a, as reference) and ferulic acid (shown in FIG. 2b) are analyzed from the resonance Raman spectroscopy measurements. In more specific, the percentage of high oxygen affinity “R” state for each treated hemoglobin was obtained by fitting a simulated spectrum comprised of adjustable weighing factors of the T and R states of pure hemoglobin to the obtained resonance Raman spectrum of treated hemoglobin.

Chain of hemoglobin (P69905 2-142): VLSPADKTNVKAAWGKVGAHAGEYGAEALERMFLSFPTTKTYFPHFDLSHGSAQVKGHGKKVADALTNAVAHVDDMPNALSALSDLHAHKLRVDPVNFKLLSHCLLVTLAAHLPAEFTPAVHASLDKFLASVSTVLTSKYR
Chain of hemoglobin (P68871 2-147): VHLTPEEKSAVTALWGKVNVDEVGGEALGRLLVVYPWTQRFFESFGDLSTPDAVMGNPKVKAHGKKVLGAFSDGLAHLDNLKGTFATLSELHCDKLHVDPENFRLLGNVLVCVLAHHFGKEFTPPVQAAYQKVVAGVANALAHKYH

SMILES	"R" state suppression efficiency
O=C(O)C(COP(=O)(O)O)OP(=O)(O)O (centres unmarked) [2,3-BPG, 2,3-bisphosphoglycerate]	about 20%
COc1cc(/C=C/C(=O)O)ccc1O [ferulic acid]	higher than 50%
